Laboratory results published in patent publication US7166636B2, “Indole-amid derivatives which possess glycogen phosphorylase inhibitory activity” (AstraZeneca AB, priority 2002, dated 2007).

Assays:
conscious dogs = details: following a glucagon challenge; cited from earlier work
db/db and ob/ob mice = db/db and ob/ob mice following treatment; cited from earlier work
hepatocytes = details: cited from earlier work; for glucose output: glucagon stimulated
[1] = target: T1, Human recombinant liver glycogen phosphorylase a (hrl GPa) (Homo sapiens, UniProt P06737); test: Glycogen phosphorylase a inhibition, glycogen degradation, multienzyme coupled assay (NADH fluorescence); type: biochemical; details: hrl GPa 20 nM, 6 hours at 30° C.
T1 sequence (P06737 1-847): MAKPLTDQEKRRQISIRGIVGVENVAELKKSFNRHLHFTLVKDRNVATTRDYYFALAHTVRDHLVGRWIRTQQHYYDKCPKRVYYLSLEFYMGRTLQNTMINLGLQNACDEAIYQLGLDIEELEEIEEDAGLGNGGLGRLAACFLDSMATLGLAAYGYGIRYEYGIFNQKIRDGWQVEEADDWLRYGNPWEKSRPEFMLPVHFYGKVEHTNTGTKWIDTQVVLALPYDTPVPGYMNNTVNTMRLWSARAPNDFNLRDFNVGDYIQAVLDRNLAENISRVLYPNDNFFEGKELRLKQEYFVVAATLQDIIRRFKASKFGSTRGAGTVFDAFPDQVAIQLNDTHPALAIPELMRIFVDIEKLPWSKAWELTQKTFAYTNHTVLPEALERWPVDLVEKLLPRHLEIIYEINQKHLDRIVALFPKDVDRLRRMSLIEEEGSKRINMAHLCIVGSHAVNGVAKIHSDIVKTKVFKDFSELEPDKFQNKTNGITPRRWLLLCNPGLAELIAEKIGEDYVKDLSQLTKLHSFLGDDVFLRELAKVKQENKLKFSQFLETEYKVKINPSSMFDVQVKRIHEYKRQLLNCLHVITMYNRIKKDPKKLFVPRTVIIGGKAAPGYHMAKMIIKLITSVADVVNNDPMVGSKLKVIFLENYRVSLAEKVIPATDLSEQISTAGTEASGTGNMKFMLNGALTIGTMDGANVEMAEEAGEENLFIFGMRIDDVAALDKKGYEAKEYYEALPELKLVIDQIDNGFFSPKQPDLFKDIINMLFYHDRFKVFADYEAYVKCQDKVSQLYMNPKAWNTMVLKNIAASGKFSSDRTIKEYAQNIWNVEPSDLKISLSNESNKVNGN
Method: The activity of the compounds is alternatively determined by measuring the inhibitory effect of the compounds on glycogen degradation, the production of glucose-1-phosphate from glycogen is monitored by the multienzyme coupled assay, as described in EP 0 846 464 A2, general method of Pesce et al (Pesce, M A, Bodourian, S H, Harris, R C, and Nicholson, J F (1977) Clinical Chemistry 23, […]). The reactions were in 384 well microplate format in a volume of 50 μl. The change in fluorescence due to the conversion of the co-factor NAD to NADH is measured at 340 nm excitation, 465 nm emission in a Tecan Ultra Multifunctional Microplate Reader. The reaction is in 50 OmM HEPES, 3.5 mM KH2PO4, 2.5 mM MgCl2, 2.5 mM ethylene glycol-bis(b-aminoethyl ether) N,N,N′,N′-tetraacetic acid, 100 mM KCl, 8 mM D-(+)-glucose pH7.2, containing 0.5 mM dithiothreitol, the assay buffer solution. Human recombinant liver glycogen phosphorylase a (hrl GPa) 20 nM is pre-incubated in assay buffer solution with 6.25 mM NAD, 1.25 mg type III glycogen at 1.25 mg ml^−1 the reagent buffer, for 30 minutes. […] The non-inhibited activity of GPa is measured in the presence of 10 μl 5% DMSO in assay buffer solution and maximum inhibition measured in the presence of 5 mgs ml^−1 N-ethylmaleimide. […] Relative Fluoresence Units (RFUs) are measured at 340 nm excitation, 465 nm emission. […]

CCN1C(C)=C(C(=O)OC(C)C)C(c2ccccc2Cl)C2=C1COC2=O (stereo not drawn) [Bay R 3401]
arterial plasma glucose (conscious dogs): reduced significantly | hepatic glucose output (conscious dogs): reduced significantly

CN(C)C(=O)[C@H](O)[C@H](Cc1ccccc1)NC(=O)c1cc2cc(Cl)ccc2[nH]1 [CP91149]
plasma glucose concentration (db/db and ob/ob mice): reduced, in a dose related manner | glucagon stimulated glycogenolysis (hepatocytes): reduce | glucose output (hepatocytes): reduce

O=C(N[C@@H](Cc1ccc(F)cc1)C(=O)N1CCC(O)CC1)c1cc2cc(Cl)ccc2[nH]1 [CP320626]
plasma glucose concentration (db/db and ob/ob mice): reduced, in a dose related manner | glucagon stimulated glycogenolysis (hepatocytes): reduce | glucose output (hepatocytes): reduce

COC(=O)c1ncoc1[C@H](Cc1ccccc1)NC(=O)c1cc2cc(Cl)ccc2[nH]1 [Example 1, Methyl (S)-5-{1-[(5-chloro-1H-indol-2-ylcarbonyl)amino]-2-phenylethyl}oxazole-4-carboxylate]
IC50 [1]: 2.4 µM
